The subject of one assay is KB cells. Description: Autophagy (LC3 conversion, Western blot), KB. It is filed as cell-based, Human. Conditions: 48 h or 72 h, full serum. The method, then:
KB cells were treated with either DMSO (negative control) or BPR1K653 (48 h or 72 h) under full serum conditions. Cells cultured drug-free under reduced serum conditions were used as a positive control. Expression of various proteins was determined by Western blotting. The level of conversion of LC3-I to LC3-II provides an indicator of autophagic activity. (TIF) Click here for additional data file.

In the next assay the target is T1, CHK1 (Homo sapiens, UniProt O14757).
T1 construct: His-tagged CHK1 (residues M1-T476); His; made in house; host or cells: Sf9 insect cells
T1 sequence (O14757 whole entry, the tested form may be a part): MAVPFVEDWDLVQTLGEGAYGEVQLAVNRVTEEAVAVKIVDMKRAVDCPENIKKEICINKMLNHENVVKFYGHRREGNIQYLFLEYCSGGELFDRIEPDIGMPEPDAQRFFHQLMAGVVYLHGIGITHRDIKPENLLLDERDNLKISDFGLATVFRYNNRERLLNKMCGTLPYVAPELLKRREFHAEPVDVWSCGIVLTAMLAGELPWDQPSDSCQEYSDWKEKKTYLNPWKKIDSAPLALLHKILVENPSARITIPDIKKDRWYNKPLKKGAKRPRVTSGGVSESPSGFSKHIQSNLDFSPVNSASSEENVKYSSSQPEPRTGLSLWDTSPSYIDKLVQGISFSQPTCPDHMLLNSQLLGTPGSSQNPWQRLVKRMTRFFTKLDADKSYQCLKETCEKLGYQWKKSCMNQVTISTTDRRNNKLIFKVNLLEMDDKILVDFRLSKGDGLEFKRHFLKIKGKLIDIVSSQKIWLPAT
Description: Kinase inhibition assay, CHK1. Type of assay: biochemical. The procedure:
CHK1/2 – The recombinant His-tagged CHK1 (residues M1-T476) or CHK2 (residues M1-L543) containing kinase domain were expressed in Sf9 insect cells. The kinase assay was carried out in 96-well plates with the tested compound at 30°C for 120 min.
(§1) Composition of the reaction buffers used in different kinase inhibitory assays is described in Figure S3.
25 mM HEPES pH 7.4, 10mM MgCl2, 4mM MnCl2, 0.5mM Na3VO4, 2 mM DTT, 0.02% Triton X100, 0.01% BSA, 1 mM ATP, 2 mM CHK peptide ([…]), 50~500 ng recombinant CHK1 or CHK2.

A further assay has as its system A549 cells. Briefly: Clonogenic assay, A549. To be noted: Homo sapiens; A549, lung, p53 wild-type, MDR1 negative; read-out: IC50, anti-proliferative activity. It is filed as cell-based, Human. The procedure: (§2) Human lung adenocarcinoma A549 cells and NTUB1 bladder cancer cells were maintained in RPMI supplied with 10% fetal bovine serum. […] KB-derived MRP1-expressing cell line, KB-7D, was maintained in growth medium supplemented with 7 µM VP-16.
(§3) Two hundred cells in logarithmic growth phase were seeded in a 6-well plate. The cells were exposed to various concentrations of the test drugs for a three-generation period. At the end of the incubation period, cells were fixed and stained with 50% ethanol containing 0.5% methylene blue for 30 min. The plates were washed five times with water and allowed to air-dry. Colonies were countered manually. […] Each value represents the average of at least three independent experiments run in triplicates.

The target of the next assay is T2, FLT3 (Homo sapiens, UniProt P36888).
T2 construct: FLT3 kinase catalytic domain (residues Y567∼S993); made in house; host or cells: Sf9 insect cells
T2 sequence (P36888 567-993): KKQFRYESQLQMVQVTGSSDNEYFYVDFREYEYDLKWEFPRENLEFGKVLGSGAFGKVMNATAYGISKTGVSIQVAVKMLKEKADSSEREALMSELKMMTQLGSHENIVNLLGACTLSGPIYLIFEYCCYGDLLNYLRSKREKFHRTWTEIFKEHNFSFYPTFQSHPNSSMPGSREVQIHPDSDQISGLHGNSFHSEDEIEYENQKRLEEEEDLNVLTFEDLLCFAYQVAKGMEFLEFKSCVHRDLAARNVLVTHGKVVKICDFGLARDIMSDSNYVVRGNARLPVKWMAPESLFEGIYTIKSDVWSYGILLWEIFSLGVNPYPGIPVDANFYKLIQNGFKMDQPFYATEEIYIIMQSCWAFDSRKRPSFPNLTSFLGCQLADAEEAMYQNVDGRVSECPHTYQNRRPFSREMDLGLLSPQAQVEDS
Description: Kinase-Glo inhibition assay, FLT3. It is filed as biochemical. The method, then: FLT3 – GST-tagged FLT3-KDWT containing the FLT3 kinase catalytic domain (residues Y567∼S993) were expressed in Sf9 insect cells. The FLT3WT Kinase-Glo assays were carried out in 96-well plates at 30°C for 4 h with the tested compound.
as §1
75 ng GST-FLT3-KDWT proteins, 25 mM HEPES, pH 7.4, 4 mM MnCl2, 10 mM MgCl2, 2mM DTT, 0.02% Triton X-100, 0.1 mg/ml bovine serum albumin, 25 μM Her2 peptide substrate, 0.5 mM Na3VO4, and 1 μM ATP.
On the technique in general: In Kinase-Glo more light means more ATP remaining.

The next assay has as its system OECM-1 cells. Briefly: Clonogenic assay, OECM-1. It is filed as cell-based, Human. Conditions: Homo sapiens, OECM1; OECM-1, oral, p53 mutant, MDR1 negative; read-out: IC50, anti-proliferative activity. The procedure: as §2, §3
A further assay deals with T3, Aurora-A (Homo sapiens, UniProt O14965).
T3 construct: GST-tagged Aurora-A (residues S123-S401) containing kinase domain; GST; made in house; host or cells: Sf9 insect cells
T3 sequence (O14965 123-401): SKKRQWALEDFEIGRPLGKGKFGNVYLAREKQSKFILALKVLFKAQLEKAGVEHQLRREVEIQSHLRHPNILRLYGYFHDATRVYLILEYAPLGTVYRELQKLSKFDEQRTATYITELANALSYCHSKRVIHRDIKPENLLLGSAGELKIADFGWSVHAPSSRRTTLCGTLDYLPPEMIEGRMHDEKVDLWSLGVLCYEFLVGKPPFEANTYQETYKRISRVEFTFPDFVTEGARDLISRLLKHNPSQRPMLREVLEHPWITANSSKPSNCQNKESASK
Description: In vitro kinase inhibition assay, Aurora-A. It is filed as biochemical. To be noted: recombinant GST-tagged Aurora-A, 37°C, 90 min. The procedure:
Aurora-A and Aurora-B kinase - The recombinant GST-tagged Aurora-A (residues S123-S401) containing kinase domain was expressed in Sf9 insect cells. The recombinant full length His-tagged Aurora-B (residues M1∼A344) was purchased from Invitrogen (PV3970). The kinase assay were carried out in 96-well plates with the tested compound at either 37°C (Aurora-A) for 90 min or 30°C (Aurora-B) for 120 min.
as §1
50 mM Tris-HCl pH 7.4, 10 mM NaCl, 10 mM MgCl2, 0.01% BSA, 5 mM ATP, 1 mM DTT and […] tetra(LRRASLG) peptide, and either 150 ng recombinant Aurora-A or 40 ng recombinant Aurora-B.

Another assay deals with KB-7D cells. Description: Clonogenic assay, KB-7D. Type of assay: cell-based. Conditions: Homo sapiens, KB7D, VP-16 resistant, MRP1 ↑, read-out: IC50, anti-proliferative activity. The method, then:
Human lung adenocarcinoma A549 cells and NTUB1 bladder cancer cells were maintained in RPMI supplied with 10% fetal bovine serum. KB-derived MDR1-expressing cell lines (i.e. KB-VIN10 and KB-S15) and NTUB1-dervided MDR1-expressing cell line (i.e. NTU0.017) were maintained in growth medium supplemented with 10 nM vincristine, 15 nM and 17 nM paclitaxel respectively. […] KB-derived MRP1-expressing cell line, KB-7D, was maintained in growth medium supplemented with 7 µM VP-16.
Two hundred cells in logarithmic growth phase were seeded in a 6-well plate. The cells were exposed to various concentrations of the test drugs for a three-generation period. At the end of the incubation period, cells were fixed and stained with 50% ethanol containing 0.5% methylene blue for 30 min. The plates were washed five times with water and allowed to air-dry. Colonies were countered manually. The IC50 value resulting from 50% inhibition of cell growth was calculated graphically as a comparison with the growth of the control group. Each value represents the average of at least three independent experiments run in triplicates.

Molecules are shown by their SMILES.

In the case of `CN(C)Cc1ccccc1NC(=O)Nc1ccc(CCNc2ncnc3oc(-c4ccccc4)c(Cl)c23)cc1` [BPR1K653], the induction of autophagy result with KB cells is “not autophagy”. The IC50 (in general, the point on the concentration scale where inhibition reaches its midpoint) against CHK1 was above 10000 nM; in the assay with A549 cells, 9 nM; at FLT3, above 10000 nM; in the assay on OECM-1 cells it was 135 ± 10 nM; on Aurora-A it was 124 nM; in the assay on KB-7D cells it was 19 nM.

For the origin of these results see PMC3160846 (PLoS ONE, 2011).
